Test results as given in ChEMBL document CHEMBL1136973, “Structure-activity relationships of heteroaromatic esters as human rhinovirus 3C protease inhibitors” (Bioorg Med Chem Lett, 2009).
The source made the active and inactive calls. The rule behind the calls is not given here.

The compounds below were run against Genome polyprotein (rhinovirus A16) (UniProt Q82122) (assay: Inhibition of HRV-16 protease 3C expressed in Escherichia coli BL21(DE3) at 1 uM by FRET assay).
Genome polyprotein (rhinovirus A16), sequence (Q82122 whole entry): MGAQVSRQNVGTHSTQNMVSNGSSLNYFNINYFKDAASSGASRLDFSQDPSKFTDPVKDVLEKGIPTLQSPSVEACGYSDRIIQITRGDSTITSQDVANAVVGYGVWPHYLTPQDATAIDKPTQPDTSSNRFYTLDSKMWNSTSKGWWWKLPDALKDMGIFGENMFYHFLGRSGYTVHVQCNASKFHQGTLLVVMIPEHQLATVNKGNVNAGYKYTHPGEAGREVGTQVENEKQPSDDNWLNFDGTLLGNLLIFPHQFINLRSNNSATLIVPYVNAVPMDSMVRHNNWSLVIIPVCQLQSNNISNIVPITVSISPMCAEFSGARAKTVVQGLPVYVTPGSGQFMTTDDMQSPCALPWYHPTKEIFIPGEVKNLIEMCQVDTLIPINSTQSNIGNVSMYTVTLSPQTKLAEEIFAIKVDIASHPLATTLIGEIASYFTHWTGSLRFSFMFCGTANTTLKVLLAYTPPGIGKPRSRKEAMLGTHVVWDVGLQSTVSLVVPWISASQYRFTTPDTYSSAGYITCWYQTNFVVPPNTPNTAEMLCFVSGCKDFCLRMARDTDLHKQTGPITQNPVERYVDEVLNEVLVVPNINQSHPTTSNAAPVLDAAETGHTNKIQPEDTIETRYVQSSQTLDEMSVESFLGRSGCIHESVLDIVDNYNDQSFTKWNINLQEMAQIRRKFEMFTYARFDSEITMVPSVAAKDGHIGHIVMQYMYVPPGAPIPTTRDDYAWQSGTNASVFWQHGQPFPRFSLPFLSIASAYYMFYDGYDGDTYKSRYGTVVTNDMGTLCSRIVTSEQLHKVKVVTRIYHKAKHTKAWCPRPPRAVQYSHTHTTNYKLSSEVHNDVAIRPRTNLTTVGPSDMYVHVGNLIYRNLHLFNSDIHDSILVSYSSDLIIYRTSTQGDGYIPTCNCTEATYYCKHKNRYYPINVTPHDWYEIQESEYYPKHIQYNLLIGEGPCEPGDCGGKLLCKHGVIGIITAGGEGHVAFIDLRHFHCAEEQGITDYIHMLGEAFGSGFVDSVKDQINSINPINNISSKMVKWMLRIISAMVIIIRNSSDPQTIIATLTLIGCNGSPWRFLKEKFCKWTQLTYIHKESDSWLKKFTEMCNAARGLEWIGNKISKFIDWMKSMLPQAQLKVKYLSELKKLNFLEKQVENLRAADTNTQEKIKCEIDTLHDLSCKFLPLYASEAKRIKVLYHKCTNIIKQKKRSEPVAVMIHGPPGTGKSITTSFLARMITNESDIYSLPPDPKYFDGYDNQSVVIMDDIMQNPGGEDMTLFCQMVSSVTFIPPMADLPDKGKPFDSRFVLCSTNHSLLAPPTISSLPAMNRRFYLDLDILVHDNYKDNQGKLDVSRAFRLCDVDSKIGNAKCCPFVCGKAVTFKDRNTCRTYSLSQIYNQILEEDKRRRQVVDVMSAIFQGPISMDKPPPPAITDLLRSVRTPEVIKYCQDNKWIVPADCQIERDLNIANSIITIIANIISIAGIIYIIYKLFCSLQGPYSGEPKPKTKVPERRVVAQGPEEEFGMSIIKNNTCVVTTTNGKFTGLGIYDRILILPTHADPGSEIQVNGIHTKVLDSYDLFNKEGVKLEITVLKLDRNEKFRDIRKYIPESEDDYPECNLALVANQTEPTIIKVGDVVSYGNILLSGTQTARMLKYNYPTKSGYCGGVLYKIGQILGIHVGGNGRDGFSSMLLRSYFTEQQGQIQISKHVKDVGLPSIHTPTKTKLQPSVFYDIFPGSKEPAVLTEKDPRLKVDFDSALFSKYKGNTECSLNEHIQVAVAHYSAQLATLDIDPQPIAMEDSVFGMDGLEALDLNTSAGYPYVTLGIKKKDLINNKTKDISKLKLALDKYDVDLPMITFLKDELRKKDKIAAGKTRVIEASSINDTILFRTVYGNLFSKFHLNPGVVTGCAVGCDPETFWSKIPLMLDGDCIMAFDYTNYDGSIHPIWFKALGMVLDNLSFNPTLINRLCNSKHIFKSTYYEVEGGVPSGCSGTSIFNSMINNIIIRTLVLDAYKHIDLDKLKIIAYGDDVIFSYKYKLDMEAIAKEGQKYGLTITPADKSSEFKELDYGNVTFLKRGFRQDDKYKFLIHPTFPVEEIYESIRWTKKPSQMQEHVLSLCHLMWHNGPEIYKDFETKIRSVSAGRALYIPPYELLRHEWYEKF
Compound `O=C(CCc1ccccc1)Oc1cncc(Br)c1` has an inhibition of 34%. `CCOc1nc(-c2ccccc2)oc1C(=O)Oc1cncc(Cl)c1` was tested, and the inhibition was “inactive”. `O=C(/C=C/c1ccccc1)Oc1cncc(Br)c1` gave an inhibition of 63%. With `O=C(Oc1cccnc1)c1ccco1` the inhibition was 8%. Compound `O=C(Oc1cncc(Cl)c1)c1ccco1` has an inhibition of 87%. `Cc1cc(C(=O)Oc2cncc(Cl)c2)no1` was tested, and the inhibition was “inactive”. `O=C(Oc1cncc(Cl)c1)c1cccs1` gave an inhibition of 64%. `O=C(Oc1cncc(Br)c1)c1ccco1` gave an inhibition of 90%. Work on `NC(=O)c1ccc(OC(=O)c2ccco2)cc1` yielded an inhibition of 5%. `O=C(Oc1cncc(Cl)c1)c1cccc2ccccc12` gave an inhibition of 75%. `CCOc1nc(/C=C/c2ccccc2)oc1C(=O)Oc1cncc(Cl)c1` was tested, and the inhibition was 87%. In the case of `CCOc1nc(C(c2ccccc2)c2ccccc2)oc1C(=O)Oc1cncc(Cl)c1`, the inhibition is reported as 5%. `O=C(Oc1cncc(Cl)c1)c1ccc(-c2ccc([N+](=O)[O-])cc2)o1` showed an inhibition of 60%. In the case of `O=C(Oc1cccnc1C(=O)O)c1ccco1`, the inhibition is reported as “inactive”. `O=C(Oc1ccccn1)c1ccco1` was tested, and the inhibition was “inactive”. With `O=C(Oc1cc(Cl)cnc1O)c1ccco1` the inhibition was “inactive”. `O=C(Oc1cncc(Cl)c1)c1ccc(-c2ccc(Cl)cc2)o1` showed an inhibition of 89%. With `Nc1ncccc1OC(=O)c1ccco1` the inhibition was 24%. For `O=C(Oc1cncc(Cl)c1)c1ccccc1`, the inhibition was 59%. `NC(=O)c1cccc(OC(=O)c2ccco2)c1` showed an inhibition of 5%. `O=C(Oc1cncc(Cl)c1)c1ccc(-c2ccccc2)o1` was tested, and the inhibition was 80%. Work on `CCOc1nc(Cc2ccccc2)oc1C(=O)Oc1cncc(Cl)c1` yielded an inhibition of 5%. Work on `O=C(Oc1cncc(Cl)c1)c1c[nH]cn1` yielded an inhibition of 82%. In the case of `O=C(Oc1cccnc1O)c1ccco1`, the inhibition is reported as “inactive”. In the case of `CCOc1nc(-c2ccc3ccccc3c2)oc1C(=O)Oc1cncc(Cl)c1`, the inhibition is reported as 34%. In the case of `Cc1ccc(-c2ccc(C(=O)Oc3cncc(Cl)c3)o2)cc1`, the inhibition is reported as 79%. `O=C(Oc1cncc(Cl)c1)c1cn(-c2ccc(C(F)(F)F)cc2)cn1` showed an inhibition of 40%. Compound `NC(=O)c1ncccc1OC(=O)c1ccco1` has an inhibition of 14%. In the case of `O=C(Oc1ccncc1)c1ccco1`, the inhibition is reported as “inactive”. Work on `O=C(Oc1cncc(Cl)c1)c1ccc2ccccc2c1` yielded an inhibition of 80%. `O=C(Oc1cc(=O)[nH]c2ccccc12)c1ccco1` showed an inhibition of 98%.

Each compound was assayed against Genome polyprotein (rhinovirus A16) (UniProt Q82122) (assay: Inhibition of HRV-16 protease 3C expressed in Escherichia coli BL21(DE3) at 10 uM by FRET assay).
Work on `NC(=O)c1ccc(OC(=O)c2ccco2)cc1` yielded an inhibition of 21%.

Each compound was assayed against Genome polyprotein (rhinovirus A16, UniProt Q82122) (assay: Inhibition of HRV-16 protease 3C expressed in Escherichia coli BL21(DE3) by FRET assay).
Genome polyprotein, sequence (Q82122 1511-1693 limits assumed): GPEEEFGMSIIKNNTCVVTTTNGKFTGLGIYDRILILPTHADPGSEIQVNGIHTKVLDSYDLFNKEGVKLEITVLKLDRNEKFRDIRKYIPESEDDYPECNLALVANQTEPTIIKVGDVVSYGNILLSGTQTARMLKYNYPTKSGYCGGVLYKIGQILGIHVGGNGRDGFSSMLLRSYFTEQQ
`O=C(Oc1cncc(Cl)c1)c1cnc[nH]1` was tested, and the IC50 was 290 nM. `O=C(Oc1cncc(Br)c1)c1ccco1` was tested, and the IC50 was 80 nM. In the case of `CCOc1nc(/C=C/c2ccccc2)oc1C(=O)Oc1cncc(Cl)c1`, the IC50 is reported as 690 nM. With `O=C(Oc1cncc(Cl)c1)c1ccc2ccccc2c1` the IC50 was 710 nM. Work on `O=C(Oc1cc(=O)[nH]c2ccccc12)c1ccco1` yielded an IC50 of 200 nM.

What follows are compounds tested against Replicase polyprotein 1ab (Severe acute respiratory syndrome-related coronavirus, UniProt P0C6X7) (assay: Inhibition of SARS coronavirus isolate Tor2 3C-like protease by FRET assay).
Work on `O=C(Oc1cccnc1)c1cccs1` yielded an IC50 of 500 nM.
